Laboratory results from PMC10418599, “Quercetins, Chlorogenic Acids and Their Colon Metabolites Inhibit Colon Cancer Cell Proliferation at Physiologically Relevant Concentrations” (International Journal of Molecular Sciences, 2023).
One block for each compound: values may come before it.

Key:
SW480 cell line [1] = experiment: Cell metabolism of phenolic compounds (UHPLC-HR-MS analysis of cell media); type: in vitro ADME, Human; conditions: for Concentration of substrate in cell medium: initial 50 μmol/L
Protocol: To analyze the metabolism of phenolic compounds by Caco-2 and SW480 cells, the cell culture media were withdrawn after 0, 24, 48 and 72 h of incubation. Phenolic compounds were extracted from the culture media by following the procedure reported in Sala et al.. Briefly, 100 μL of cold methanol was mixed with 100 μL of cell media and vortexed for 1 min. The mixture was then centrifuged at 10,000× g (4 °C, 5 min) and the supernatant was injected, after appropriate dilution, in an ultra-high-performance liquid chromatography high-resolution mass spectrometry system (UHPLC-HR-MS).
The HR-MS system consisted of a UHPLC Ultimate 3000 separation module, equipped with a C18 column (Acquity UPLC HSS C18 reversed phase, 2.1 × 100 mm, 1.8 μm particle size, Waters, Milan, Italy) and coupled with a Q Exactive Hybrid Quadrupole-Orbitrap Mass Spectrometer (Thermo Scientific, San Jose, CA, USA). Mobile phases consisted of a mixture of water containing formic acid (0.1%) (mobile phase A) and acetonitrile containing formic acid (0.1%) (mobile phase B). The gradient began at 1% B, reaching 40% B over 20 min. To wash the column, the mobile phase B concentration was raised to 99% over 6 min and kept at 99% for 3 min before returning to the initial conditions. The MS and MS/MS conditions are fully described in Martini et al..
Quantification was carried out by building external calibration curves with the available standard compounds.

Caco-2 cell line = experiment: Anti-proliferative assay (MTS cell proliferation assay); type: cell-based, Human; conditions: for IC50: maximum tested concentration 200 μmol/L
Protocol: (§1) Human colon cancer Caco-2 and SW480 cell lines were cultured and grown as previously reported. […] Incubation was carried out for 24, 48 and 72 h. Data were compared with a control solution containing 0.5% DMSO in cell medium and representing 100% proliferation. In addition, six different mixes were prepared to simulate the simultaneous presence of parent phenolic compounds and metabolites by mimicking the possible human inter-individual variability in colon metabolism of phenolic compounds. Two sets of mixes were prepared to consider the colon metabolism of quercetins and chlorogenic acids. […] For each set of mixtures (QUE and CGA mixtures), three different mixes were formulated. One set of mixes mimicked the low-producers metabotype and contained 90% parent compounds and 10% metabolites (mixes QUE-LP and CGA-LP). Another set of mixes was prepared to simulate the high-producers metabotype and contained 10% parent compounds and 90% metabolites (mixes QUE-HP and CGA-HP). Finally, a third set of mixes was prepared with equimolar amounts of all the compounds (mixes QUE-EQ and CGA-EQ). […] Cell proliferation was assessed by the MTS assay as previously described. […] The IC50 values were calculated through non-linear regression analysis by plotting the base-10 logarithm of the phenolic compound concentration vs. the percentage of inhibition.

SW480 cell line [2] = experiment: as above; type: cell-based, Human; conditions: for Percentage of inhibition of SW480 growth: 100 μmol/L, 72 h; for IC50: maximum tested concentration 200 μmol/L
Protocol: as §1

[3] = after raspberry supplementation; ref 49 (Gill et al.); cited from earlier work

Compound: O=C(/C=C/c1ccc(O)c(O)c1)OC1CC(O)(C(=O)O)CC(OC(=O)/C=C/c2ccc(O)c(O)c2)C1O (stereo not drawn) [3,5-di-O-Caffeoylquinic acid, 3,5-di-O-caffeoylquinic acid]
Concentration of substrate in cell medium (SW480 cell line [1]; SW480, 24 h): 7.13 ± 0.13 µM | Concentration of substrate in cell medium (SW480 cell line [1]; SW480, 48 h): 5.41 ± 0.07 µM | Concentration of substrate in cell medium (SW480 cell line [1]; SW480, 72 h): 6.17 ± 0.05 µM | Inhibition of Caco-2 growth (Caco-2 cell line; 100 μmol/L, 72 h): almost complete inhibition | IC50 (Caco-2 cell line; Caco-2, 24 h of incubation): > 200 µM | IC50 (Caco-2 cell line; Caco-2, 48 h of incubation): 27.5 ± 1 µM | IC50 (Caco-2 cell line; Caco-2, 72 h of incubation): 8.8 ± 0.2 µM | Percentage of inhibition of SW480 growth (SW480 cell line [2]): 10.9% | IC50 (SW480 cell line [2]; SW480, 48 h of incubation): > 200 µM | IC50 (SW480 cell line [2]; SW480, 72 h of incubation): > 200 µM

Compound: O=C(O)Cc1ccc(O)c(O)c1 [3-(3′,4′-Dihydroxyphenyl)acetic acid, 3-(3′,4′-dihydroxyphenyl)acetic acid]
Maximum value in human fecal water [3]: 442 µmol/L | Concentration of substrate in cell medium (SW480 cell line [1]; SW480, 24 h): 21.62 ± 0.48 µM | Concentration of substrate in cell medium (SW480 cell line [1]; SW480, 48 h): 15.84 ± 0.09 µM | Concentration of substrate in cell medium (SW480 cell line [1]; SW480, 72 h): 10.30 ± 0.36 µM | IC50 (Caco-2 cell line; Homo sapiens, Caco-2, 24 h of incubation): 79.5 ± 1.4 µM | IC50 (Caco-2 cell line; Homo sapiens, Caco-2, 48 h of incubation): 14.7 ± 0.8 µM | IC50 (Caco-2 cell line; Homo sapiens, Caco-2, 72 h of incubation): 3 ± 0.1 µM | IC50 (SW480 cell line [2]; Homo sapiens, SW480, 48 h of incubation): > 200 µM | IC50 (SW480 cell line [2]; Homo sapiens, SW480, 72 h of incubation): 92.2 ± 6.9 µM

Further lines, with some results ahead:

Concentration of substrate in cell medium (SW480 cell line [1]; SW480, 24 h, listed as 3-O-Caffeoylquinic acid trans): 23.34 ± 0.07 µM | Concentration of newly formed metabolite (SW480 cell line [1]; SW480, 24 h, substrate 3,5-di-O-Caffeoylquinic acid 50 μmol/L, listed as 3-O-Caffeoylquinic acid trans): 0.09 ± 0.01 µM | Concentration of substrate in cell medium (SW480 cell line [1]; SW480, 48 h, listed as 3-O-Caffeoylquinic acid trans): 19.54 ± 0.07 µM | Concentration of newly formed metabolite (SW480 cell line [1]; SW480, 48 h, substrate 3,5-di-O-Caffeoylquinic acid 50 μmol/L, listed as 3-O-Caffeoylquinic acid trans): 0.13 ± 0.01 µM | Concentration of newly formed metabolite (SW480 cell line [1]; SW480, 48 h, substrate 5-O-Caffeoylquinic acid trans 50 μmol/L, listed as 3-O-Caffeoylquinic acid trans): 5.14 ± 0.07 µM | Concentration of substrate in cell medium (SW480 cell line [1]; SW480, 72 h, listed as 3-O-Caffeoylquinic acid trans): 19.83 ± 0.05 µM | Concentration of newly formed metabolite (SW480 cell line [1]; SW480, 72 h, substrate 5-O-Caffeoylquinic acid trans 50 μmol/L, listed as 3-O-Caffeoylquinic acid trans): 5.55 ± 0.09 µM | IC50 (SW480 cell line [2]; SW480, 48 h of incubation): > 200 µM | IC50 (SW480 cell line [2]; SW480, 72 h of incubation): > 200 µM
Compound: O=C(/C=C/c1ccc(O)c(O)c1)O[C@@H]1C[C@](O)(C(=O)O)C[C@@H](O)[C@H]1O [3-O-Caffeoylquinic acid, 3-O-caffeoylquinic acid]
Percentage of inhibition of SW480 growth (SW480 cell line [2]): 29.6%

Concentration of substrate in cell medium (SW480 cell line [1]; SW480, 24 h, listed as 5-O-Caffeoylquinic acid trans): 16.76 ± 0.01 µM | Concentration of newly formed metabolite (SW480 cell line [1]; SW480, 24 h, substrate 3,5-di-O-Caffeoylquinic acid 50 μmol/L, listed as 5-O-Caffeoylquinic acid trans): 0.08 ± 0.01 µM | Concentration of newly formed metabolite (SW480 cell line [1]; SW480, 24 h, substrate 3-O-Caffeoylquinic acid trans 50 μmol/L, listed as 5-O-Caffeoylquinic acid trans): 4.95 ± 0.04 µM | Concentration of substrate in cell medium (SW480 cell line [1]; SW480, 48 h, listed as 5-O-Caffeoylquinic acid trans): 17.52 ± 0.08 µM | Concentration of newly formed metabolite (SW480 cell line [1]; SW480, 48 h, substrate 3-O-Caffeoylquinic acid trans 50 μmol/L, listed as 5-O-Caffeoylquinic acid trans): 7.37 ± 0.07 µM | Concentration of substrate in cell medium (SW480 cell line [1]; SW480, 72 h, listed as 5-O-Caffeoylquinic acid trans): 13.96 ± 0.03 µM | Concentration of newly formed metabolite (SW480 cell line [1]; SW480, 72 h, substrate 3,5-di-O-Caffeoylquinic acid 50 μmol/L, listed as 5-O-Caffeoylquinic acid trans): 0.29 ± 0.01 µM | Concentration of newly formed metabolite (SW480 cell line [1]; SW480, 72 h, substrate 3-O-Caffeoylquinic acid trans 50 μmol/L, listed as 5-O-Caffeoylquinic acid trans): 11.32 ± 0.43 µM | IC50 (SW480 cell line [2]; SW480, 48 h of incubation): > 200 µM | IC50 (SW480 cell line [2]; SW480, 72 h of incubation): > 200 µM
Compound: O=C(/C=C/c1ccc(O)c(O)c1)O[C@@H]1C[C@](O)(C(=O)O)C[C@@H](O)[C@H]1O [5-O-Caffeoylquinic acid, 5-O-caffeoylquinic acid]
Percentage of inhibition of SW480 growth (SW480 cell line [2]): 14.7%

IC50 (SW480 cell line [2]; SW480, 48 h of incubation): > 200 µM | IC50 (SW480 cell line [2]; SW480, 72 h of incubation): ~200 µM
Compound: O=c1c(O[C@@H]2O[C@H](CO)[C@@H](O)[C@H](O)[C@H]2O)c(-c2ccc(O[C@@H]3O[C@H](CO)[C@@H](O)[C@H](O)[C@H]3O)c(O)c2)oc2cc(O)cc(O)c12 [Quercetin-3-O-glucoside-4′-O-glucoside, quercetin-3-O-glucoside-4′-O-glucoside]
